This note sets out measurements from ChEMBL document CHEMBL1142444 (Bioorg Med Chem Lett, 2008).

For test [1], the target named is T1, Muscarinic acetylcholine receptor M1 (Homo sapiens) (UniProt P11229).
T1 sequence (whole entry): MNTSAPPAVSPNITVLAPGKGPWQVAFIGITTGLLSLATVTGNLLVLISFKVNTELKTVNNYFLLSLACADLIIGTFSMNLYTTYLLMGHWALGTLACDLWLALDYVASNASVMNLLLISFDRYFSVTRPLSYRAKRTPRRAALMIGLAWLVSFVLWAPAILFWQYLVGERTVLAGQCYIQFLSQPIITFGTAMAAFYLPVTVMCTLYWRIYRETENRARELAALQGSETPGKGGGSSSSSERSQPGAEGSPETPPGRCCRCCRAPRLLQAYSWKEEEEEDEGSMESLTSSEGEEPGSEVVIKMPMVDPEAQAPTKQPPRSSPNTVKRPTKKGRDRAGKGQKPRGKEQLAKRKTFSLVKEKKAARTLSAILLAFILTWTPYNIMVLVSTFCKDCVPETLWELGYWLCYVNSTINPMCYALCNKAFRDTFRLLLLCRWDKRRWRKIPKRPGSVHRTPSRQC
The test is described as follows: Agonist activity at muscarinic M1 receptor relative to carbachol. The format is functional.

For test [2], the target named is T2, D(2) dopamine receptor (Homo sapiens, UniProt P14416). The test is described as follows: Inhibition of dopamine D2 receptor.
The target of test [3] is T3, Muscarinic acetylcholine receptor M2 (Homo sapiens, UniProt P08172).
T3 sequence (P08172 whole entry): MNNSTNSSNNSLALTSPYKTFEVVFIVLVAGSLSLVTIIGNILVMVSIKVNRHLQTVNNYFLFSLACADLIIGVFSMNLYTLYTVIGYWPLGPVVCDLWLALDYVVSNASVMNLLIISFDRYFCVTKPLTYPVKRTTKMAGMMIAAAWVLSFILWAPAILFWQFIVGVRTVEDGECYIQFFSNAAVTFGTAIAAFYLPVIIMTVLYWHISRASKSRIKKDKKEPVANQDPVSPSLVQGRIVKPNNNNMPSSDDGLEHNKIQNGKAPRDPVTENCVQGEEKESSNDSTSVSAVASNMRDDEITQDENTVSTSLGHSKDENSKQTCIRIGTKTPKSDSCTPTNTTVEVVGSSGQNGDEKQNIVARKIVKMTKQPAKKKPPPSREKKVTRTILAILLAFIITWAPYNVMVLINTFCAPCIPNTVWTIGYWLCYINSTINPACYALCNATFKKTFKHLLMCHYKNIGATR
The test is described as follows: Agonist activity at muscarinic M2 receptor. The format is functional.

In test [4] the target is Muscarinic acetylcholine receptor M3 (Homo sapiens, UniProt P20309). The test is described as follows: Agonist activity at muscarinic M3 receptor. In kind it is functional.
Test [5] addresses T4, Muscarinic acetylcholine receptor M4 (Homo sapiens, UniProt P08173).
T4 sequence (P08173 whole entry): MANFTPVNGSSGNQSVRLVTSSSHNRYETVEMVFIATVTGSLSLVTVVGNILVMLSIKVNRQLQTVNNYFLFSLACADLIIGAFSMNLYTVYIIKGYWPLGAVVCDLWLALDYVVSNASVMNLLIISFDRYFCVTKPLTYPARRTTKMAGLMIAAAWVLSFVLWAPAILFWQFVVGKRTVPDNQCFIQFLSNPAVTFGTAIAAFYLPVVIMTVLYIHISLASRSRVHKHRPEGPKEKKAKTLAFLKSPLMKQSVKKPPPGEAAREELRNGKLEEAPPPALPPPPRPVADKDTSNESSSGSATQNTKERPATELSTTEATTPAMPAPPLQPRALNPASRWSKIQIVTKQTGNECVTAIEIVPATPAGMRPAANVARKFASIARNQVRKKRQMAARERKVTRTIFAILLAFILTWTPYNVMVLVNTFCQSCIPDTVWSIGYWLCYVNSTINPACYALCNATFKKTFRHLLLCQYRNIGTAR
The test is described as follows: Agonist activity at muscarinic M4 receptor. The format is functional.

Test [6] addresses T5, Muscarinic acetylcholine receptor M5 (Homo sapiens, UniProt P08912).
T5 sequence (P08912 whole entry): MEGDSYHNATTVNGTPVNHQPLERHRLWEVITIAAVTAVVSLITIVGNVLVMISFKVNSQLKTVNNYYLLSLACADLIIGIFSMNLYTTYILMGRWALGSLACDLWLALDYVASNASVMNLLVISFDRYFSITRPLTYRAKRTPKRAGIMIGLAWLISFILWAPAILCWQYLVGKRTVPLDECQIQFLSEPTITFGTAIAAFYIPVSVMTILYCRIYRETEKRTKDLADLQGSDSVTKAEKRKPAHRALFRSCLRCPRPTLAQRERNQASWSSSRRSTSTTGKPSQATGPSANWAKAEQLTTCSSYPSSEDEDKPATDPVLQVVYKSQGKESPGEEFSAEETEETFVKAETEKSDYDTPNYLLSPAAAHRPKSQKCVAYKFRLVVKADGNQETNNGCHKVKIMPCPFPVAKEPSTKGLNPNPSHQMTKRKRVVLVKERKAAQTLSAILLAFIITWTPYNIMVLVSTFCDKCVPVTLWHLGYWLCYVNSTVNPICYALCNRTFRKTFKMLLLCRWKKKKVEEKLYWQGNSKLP
The test is described as follows: Agonist activity at muscarinic M5 receptor. In kind it is functional.

The target of test [7] is T6, Muscarinic acetylcholine receptor M1 (Homo sapiens, UniProt P11229).
T6 sequence (P11229 whole entry): T1 sequence (whole entry)
The test is described as follows: Agonist activity at muscarinic M1 receptor. The format is functional.

The target in test [8] is T2, D(2) dopamine receptor. Kind of test: Inhibition of dopamine D2 receptor at 10 uM. Also on record: scale not given: the % may be the effect or the level left.
The target of test [9] is T7, Muscarinic acetylcholine receptor M2 (Homo sapiens) (UniProt P08172).
T7 sequence (whole entry): T3 sequence (P08172 whole entry)
Kind of test: Agonist activity at muscarinic M2 receptor relative to carbachol. The format is functional.

Test [10] addresses T8, Muscarinic acetylcholine receptor M4 (Homo sapiens) (UniProt P08173).
T8 sequence (whole entry): T4 sequence (P08173 whole entry)
Kind of test: Agonist activity at muscarinic M4 receptor relative to carbachol. The format is functional.

Test [11] deals with T9, Muscarinic acetylcholine receptor M5 (Homo sapiens) (UniProt P08912).
T9 sequence (whole entry): T5 sequence (P08912 whole entry)
The test is described as follows: Agonist activity at muscarinic M5 receptor relative to carbachol. In kind it is functional.

Some results are limits rather than exact numbers.

T2 sequence (P14416 whole entry): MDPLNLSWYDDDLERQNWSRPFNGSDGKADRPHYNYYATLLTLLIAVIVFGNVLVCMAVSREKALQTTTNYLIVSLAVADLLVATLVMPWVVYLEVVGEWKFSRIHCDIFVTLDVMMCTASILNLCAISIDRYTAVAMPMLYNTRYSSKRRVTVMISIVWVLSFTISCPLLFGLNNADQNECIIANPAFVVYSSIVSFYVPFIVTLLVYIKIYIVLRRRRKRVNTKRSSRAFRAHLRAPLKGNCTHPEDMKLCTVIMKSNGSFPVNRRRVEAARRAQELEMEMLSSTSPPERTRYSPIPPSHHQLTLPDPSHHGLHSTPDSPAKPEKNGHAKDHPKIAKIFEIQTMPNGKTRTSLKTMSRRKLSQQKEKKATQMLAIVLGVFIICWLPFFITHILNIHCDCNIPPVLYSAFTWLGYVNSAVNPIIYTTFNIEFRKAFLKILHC
Muscarinic acetylcholine receptor M3, sequence (P20309 whole entry): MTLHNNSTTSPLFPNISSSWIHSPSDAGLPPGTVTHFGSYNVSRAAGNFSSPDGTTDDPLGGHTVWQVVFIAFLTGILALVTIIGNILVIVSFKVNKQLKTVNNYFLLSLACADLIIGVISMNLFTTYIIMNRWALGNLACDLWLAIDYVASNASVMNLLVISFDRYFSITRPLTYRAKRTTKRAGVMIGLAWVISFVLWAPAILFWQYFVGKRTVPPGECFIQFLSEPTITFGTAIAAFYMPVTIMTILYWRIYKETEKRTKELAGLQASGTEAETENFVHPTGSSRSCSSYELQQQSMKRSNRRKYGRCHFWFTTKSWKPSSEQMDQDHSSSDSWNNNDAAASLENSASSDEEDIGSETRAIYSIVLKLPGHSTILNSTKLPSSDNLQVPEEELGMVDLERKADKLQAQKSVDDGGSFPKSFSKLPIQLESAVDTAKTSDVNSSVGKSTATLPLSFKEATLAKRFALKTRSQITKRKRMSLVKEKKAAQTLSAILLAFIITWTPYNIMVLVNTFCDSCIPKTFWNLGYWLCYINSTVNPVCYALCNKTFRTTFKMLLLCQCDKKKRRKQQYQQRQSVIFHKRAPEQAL

For orientation: IC50 means the concentration needed to halve the response being measured. What is called EC50 is the concentration giving half of the maximal effect. For the compound `Cc1ccccc1CN1CCC(N2CCC(n3c(=O)[nH]c4c(F)cccc43)CC2)CC1`, the Activity in test [1] worked out at 73%. In addition, at D(2) dopamine receptor [2], the IC50 is greater than 10 µM. The EC50 in [3], in [4], in test [5] and in [6] was greater than 50 µM each time.
For `O=c1[nH]c2cc(F)ccc2n1C1CCN(C2CCN(Cc3ccccc3C(F)(F)F)CC2)CC1`, the Activity in [1] is 80%. On D(2) dopamine receptor [2], this compound yielded an IC50 of 2.69 µM. In addition, the half-maximal effective concentration (EC50) in test [3], in [4], in [5] and in test [6] was greater than 50 µM each time.
For the compound `O=c1[nH]c2cc(Cl)ccc2n1C1CCN(C2CCN(Cc3ccccc3C(F)(F)F)CC2)CC1`, the EC50 was 1.5 µM in test [7]; greater than 50 µM in test [3]; greater than 50 µM in test [4]; greater than 50 µM in test [5]; greater than 50 µM in test [6]. The Activity in test [1] was 83%.
Take `O=c1[nH]c2cc(Cl)ccc2n1C1CCN(C2CCN(Cc3ccccc3Cl)CC2)CC1`: the EC50 was 1.8 µM in [7]; greater than 50 µM in test [3]; greater than 50 µM in test [4]; greater than 50 µM in test [5]; greater than 50 µM in test [6]. In addition, the Activity in [1] was determined as 49%.
Compound `Cc1ccccc1CN1CCC(N2CCC(n3c(=O)[nH]c4ccccc43)CC2)CC1` had an Activity in test [1] of 82%. For the same compound, the IC50 at D(2) dopamine receptor [2] came out at 2.65 µM. Besides, the EC50 in test [3] and in test [6] was greater than 50 µM in each case.
On to `O=c1[nH]c2cc(Cl)ccc2n1C1CCN(C2CCN(Cc3ccccc3[N+](=O)[O-])CC2)CC1`, for which the EC50 in test [7] was 1.1 µM; in test [3], greater than 50 µM; in [4] it was greater than 50 µM; in [5], greater than 50 µM; in test [6] it was greater than 50 µM. In addition, in test [1], the Activity was found to be 42%.
`O=c1[nH]c2ccccc2n1C1CCN(C2CCN(Cc3ccccc3C(F)(F)F)CC2)CC1`: the EC50 in test [7] was 0.41 µM; in test [3], greater than 50 µM; in [4], greater than 50 µM; in test [5], greater than 50 µM; in test [6] it was greater than 50 µM. The compound further displayed an Activity on D(2) dopamine receptor [8] of 30%.
With `O=c1[nH]c2ccccc2n1C1CCN(C2CCN(Cc3ccccc3Cl)CC2)CC1`, the EC50 in test [7] is 0.26 µM; in test [3] it was greater than 50 µM; in test [4] it was greater than 50 µM; in [5] it was greater than 50 µM; in test [6], greater than 50 µM. This compound also had an Activity in test [1] of 44%. The same compound had an IC50 on D(2) dopamine receptor [2] of 2.06 µM.
Take `Cc1ccccc1CN1CCC(N2CCC(n3c(=O)[nH]c4cc(F)ccc43)CC2)CC1`: the Activity came to 85% in [1] and 40% on D(2) dopamine receptor [8]. Besides, the EC50 in test [3], in [4], in test [5] and in test [6] was greater than 50 µM throughout.
Regarding `N#Cc1ccccc1CN1CCC(N2CCC(n3c(=O)[nH]c4ccccc43)CC2)CC1`, the EC50 in [7] was 0.49 µM; in [3], greater than 50 µM; in test [4] it was greater than 50 µM; in test [5], greater than 50 µM; in [6], greater than 50 µM. Besides, the Activity in [1] was 23%; at D(2) dopamine receptor [8], 40%.
For `O=c1[nH]c2cc(Cl)ccc2n1C1CCN(C2CCN(Cc3ccccc3)CC2)CC1`, the EC50 in [7] was 0.356 µM; in test [3], greater than 50 µM; in test [4], greater than 50 µM; in [5], greater than 50 µM; in test [6], greater than 50 µM. The values for the Activity (in test [1]; on D(2) dopamine receptor [8]) were 74% and 35%, respectively.
With `O=c1[nH]c2ccc(F)cc2n1C1CCN(C2CCN(Cc3ccccc3C(F)(F)F)CC2)CC1`, the IC50 at D(2) dopamine receptor [2] is greater than 10 µM. Besides, the EC50 in test [3], in test [4], in [5] and in test [6] was greater than 50 µM throughout.
`O=c1[nH]c2ccccc2n1C1CCN(C2CCN(Cc3ccccc3[N+](=O)[O-])CC2)CC1`: the EC50 in test [7] was 0.12 µM; in test [3], greater than 50 µM; in test [4], greater than 50 µM; in test [5], greater than 50 µM; in [6], greater than 50 µM. In addition, in [1], the Activity is 48%. The compound further registered an IC50 against D(2) dopamine receptor [2] of 1.13 µM.
In the case of `N#Cc1ccccc1CN1CCC(N2CCC(n3c(=O)[nH]c4cc(Cl)ccc43)CC2)CC1`, the EC50 was 1.6 µM in test [7]; greater than 50 µM in test [3]; greater than 50 µM in test [4]; greater than 50 µM in [5]; greater than 50 µM in [6]. The compound further displayed an Activity in [1] of 27%.
`O=c1[nH]c2c(F)cccc2n1C1CCN(C2CCN(Cc3ccccc3C(F)(F)F)CC2)CC1` came in with an Activity in test [1] of 75%. The compound further returned an IC50 against D(2) dopamine receptor [2] greater than 10 µM. Also, the EC50 in [3], in [4], in [5] and in test [6] was greater than 50 µM throughout.
Compound `CCOC(=O)N1CCC(N2CCC(n3c(=O)[nH]c4ccccc43)CC2)CC1` yielded an IC50 against D(2) dopamine receptor [2] greater than 10 µM. In addition, the EC50 in test [3] came to 0.0119 µM; in [5], 0.0091 µM; in test [6], 0.0343 µM. Further, the Activity was 80.6% in test [9], 96.9% in test [10] and 50.8% in test [11].
Consider `Cc1ccccc1CN1CCC(N2CCC(n3c(=O)[nH]c4cc(Cl)ccc43)CC2)CC1`, for which the EC50 is 1.03 µM in test [7]; greater than 50 µM in test [3]; greater than 50 µM in [4]; greater than 50 µM in test [5]; greater than 50 µM in test [6]. The results for the Activity (in test [1]; on D(2) dopamine receptor [8]) were 84% and 35%, respectively.
For the compound `Cc1ccccc1CN1CCC(N2CCC(n3c(=O)[nH]c4ccc(F)cc43)CC2)CC1`, the Activity in test [1] was determined as 84%. Also, on D(2) dopamine receptor [2], the concentration for half-maximal inhibition (IC50) was greater than 10 µM. The EC50 in test [3], in test [4], in test [5] and in test [6] was greater than 50 µM each time.
